Assays:
EAhy926 = assay: MTT viability assay (IC50); type: cell-based, human
Excerpt: (§1) The following cell lines used in this study were obtained from ATCC, unless specified otherwise: Human T lymphoma cells Jurkat, human mesothelioma cells Meso-I, MM-BI, Ist-Mes, Ist-Mes-2 (Pass, H. I. et al. Characteristics of nine newly derived mesothelioma cell lines. Ann. Thorac. Surg. 59, 835-844 (1995)), human breast cancer cells MCF-7 (erbB2-low) and MDA-MB-453 (erbB2-high), human colorectal cells HCT-116, human hepatocarcinoma cells Huh-7, mouse mesothelioma cells AE17 (Jackaman, C. et al. IL-2 intratumoral immunotherapy enhances CD8+ T cells that mediate destruction of tumor cells and tumor-associated vasculature: a novel mechanism for IL-2. J. Immunol. 171, […] (2003), human non-malignant mesothelial cells Met-5A, […] (Claycomb, W. C. et al. HL-1 cells: a cardiac muscle cell line that contracts and retains phenotypic characteristics of the adult cardiomyocyte. Proc. Natl. Acad. Sci. USA 95, 2979-2984 […]) and H9c2, and the human endothelial-like cells EAhy926 (Edgell, C. J., McDonald, C. C. & Graham, J. B. Permanent cell line expressing human factor VIII-related antigen established by hybridization. Proc. Natl. Acad. Sci. USA 80, 3734-3737 (1983)). Jurkat cells were grown in the RPMI medium while DMEM was used for other malignant cell lines and for Met-5A cells, supplemented with 10% FCS and antibiotics. HL-1 cells, maintained in fibronectin/gelatine-coated dishes, were grown in the Claycomb medium supplemented with noradrenalin (Claycomb, W. C. et al. HL-1 cells: a cardiac muscle cell line that contracts and retains phenotypic characteristics of the adult cardiomyocyte. Proc. Natl. Acad. Sci. USA 95, 2979-2984 […]), EAhy926 cells were grown in complete DMEM supplemented with HAT (Edgell, C. J., McDonald, C. C. & Graham, J. B. Permanent cell line expressing human factor VIII-related antigen established by hybridization. Proc. Natl. Acad. Sci. USA 80, 3734-3737 (1983)). Cells deficient in mtDNA (ρ^0 phenotype) were prepared as detailed in Weber, T. et al., (Mitochondria play a central role in apoptosis induced by α-tocopheryl succinate, an agent with anticancer activity. Comparison with receptor-mediated pro-apoptotic signaling. Biochemistry 42, 4277-4291 (2003)). Acquisition of the ρ^0 phenotype was confirmed by lack of expression by the cells of the mtDNA-encoded cytochrome c oxidase subunit II (COXII not shown). Chinese hamster lung fibroblasts deficient in complex I (B10 cells) (See, B. B. et al. Molecular remedy of complex I defects: rotenone-insensitive internal NADH-quinone oxidoreductase of Saccharomyces cerevisiae mitochondria restores the NADH oxidase activity of complex I-deficient mammalian cells. Proc. Natl. Acad. Sci. USA 95, 9167-9171 (1998)) and complex II (CybL^−/−; B9 cells) (Oostveen, F. G., Au, H. C., Meijer, P. J. & Scheffler, I. E. A Chinese hamster mutant cell line with a defect in the integral membrane protein CII-3 of complex II of the mitochondrial electron transport chain. J. Biol. Chem. 270: 26104-26108 (1995)) as well as the parental cells (B1 cells) (Oostveen, F. G., Au, H. C., Meijer, P. J. & Scheffler, I. E. A Chinese hamster mutant cell line with a defect in the integral membrane protein CII-3 of complex II of the mitochondrial electron transport chain. J. Biol. Chem. 270: 26104-26108 (1995)) were grown in DMEM with 10% FCS, antibiotics, 10 mg/ml glucose and non-essential aminoacids.
(§2) Toxicity of α-TOS, VE11S (“VES”), MitoVE3S, MitoVE5S, MitoVE7S, MitoVE9S, MitoVE11S (“MitoVES”), MitoVE11AE (“MitoVEAE”), MitoVE11F (“MitoVEF”), MitoVE11M (“MitoVEM”), and VES4TPP towards cancer cells was assessed on the basis of IC50, as detailed in Turanek, J., et al. ((2008). Liposomal formulation of vitamin E analogs as an efficient and selective anti-cancer treatment. Clin. Cancer Res. (submitted)). […]

HCT-116 = assay: MTT viability assay (IC50); type: cell-based, human; conditions: HCT-116, ~60% confluency
Excerpt: as §1, §2

Ist-Mes-2 = assay: MTT viability assay (IC50); type: cell-based, human; conditions: Ist-Mes-2, ~60% confluency
Excerpt: as §1, §2

Ist-Mes = assay: MTT viability assay (IC50); type: cell-based, human; conditions: ~60% confluency
Excerpt: as §1, §2

Jurkat = assay: MTT viability assay (IC50); type: cell-based, human
Excerpt: as §1, §2

MCF-7 = assay: MTT viability assay (IC50); type: cell-based, human; conditions: MCF-7, ~60% confluency
Excerpt: as §1, §2

MDA-MB-453 = assay: MTT viability assay (IC50); type: cell-based, human; conditions: MDA-MB-453, ~60% confluency
Excerpt: as §1, §2

MM-BI = assay: MTT viability assay (IC50); type: cell-based, human; conditions: ~60% confluency
Excerpt: as §1, §2

Meso-2 = assay: MTT viability assay (IC50); type: cell-based, human; conditions: Meso-2, ~60% confluency
Excerpt: as §1, §2

Met5A = assay: MTT viability assay (IC50); type: cell-based, human; conditions: ~60% confluency
Excerpt: as §1, §2

H9c2 = assay: MTT viability assay (IC50); type: cell-based, rat; conditions: H9c2, ~60% confluency
Excerpt: as §1, §2

HL-1 = assay: MTT viability assay (IC50); type: cell-based, rat; conditions: HL-1, ~60% confluency
Excerpt: as §1, §2

[1] = tested on: MS cells derived from MCF7 cells; assay: Drug induced cell death in mammosphere cells (FIG. 8); type: cell-based, human; conditions: for sensitivity of MS cells to drug induced cell death: 5 μM MitoVES, 50 μM α-TOS or 10 μM parthenolide
Description: Adherent MCF7 cells and the corresponding mammosphere cells (MS) were cultured and assessed for morphological changes by microscopy (A) and for expression levels of markers as indicators of “sternness” by RT-PCR (B) and flow cytometry (C), including the expression of CD44 and CD24 (D). The adherent MCF7 cells (E) and the MS cells (F) were treated with 5 μM MitoVES, 50 μM α-TOS or 10 μM parthenolide and assessed for their sensitivity to drug induced cell death. […] Adherent MCF7 cells (I) and MS cells (J) were treated for 3 h with α-TOS (50 μM) or MitoVES homologues containing different lengths in the aliphatic side chain (5 μM each, either 11, 7 or 5 carbon chain in length) and the treated cells assessed for production of reactive oxygen species (ROS) by flow cytometry.

[2] = EAhy926 treated at 100% confluency (top lines)
[3] = EAhy926 treated at ~50% confluency (bottom lines)
[4] = Jurkat, treated at 0.5 × 10^6 per ml, MTT viability curves
[5] = Table VI: Jurkat 0.5 × 10^6 per ml, analogs added as EtOH solution, MTT

Cc1c(C)c2c(c(C)c1OC(=O)CCC(=O)[O-])CCC(C)(CCCCCCCCCCC[P+](c1ccccc1)(c1ccccc1)c1ccccc1)O2 (stereo not shown) [MitoVE11S]
IC50 (EAhy926; [2]): 32 ± 6 µM | IC50 (EAhy926; [3]): 0.7 ± 0.2 µM | IC50 (HCT-116): 2.8 ± 0.8 µM | IC50 (Ist-Mes-2): 1.1 ± 0.25 µM | IC50 (Ist-Mes): 2.2 ± 0.3 µM | IC50 (Jurkat; [4]): 0.48 ± 0.1 µM | IC50 (Jurkat; [5]): 0.48 ± 0.1 µM | IC50 (MCF-7): 1.9 ± 0.5 µM | IC50 (MDA-MB-453): 3.3 ± 0.7 µM | IC50 (MM-BI): 1.4 ± 0.3 µM | IC50 (Meso-2): 2.4 ± 0.5 µM | IC50 (Met5A): 21 ± 4 µM | IC50 (H9c2): 54 ± 8 µM | IC50 (HL-1): 48 ± 6 µM | sensitivity of MS cells to drug induced cell death [1]: very sensitive | apoptosis of MS cells ([1]; within 5-6 h after adding the drug): > 90%

Cc1c(C)c2c(c(C)c1OC(=O)CCC(=O)O)CC[C@@](C)(CCC[C@H](C)CCC[C@H](C)CCCC(C)C)O2 [α-TOS, α-tocopheryl succinate, reference compound]
IC50 (EAhy926; [2]): > 100 µM | IC50 (EAhy926; [3]): 9.5 ± 2.7 µM | IC50 (HCT-116): 31 ± 6 µM | IC50 (Ist-Mes-2): 21 ± 3 µM | IC50 (Ist-Mes): 24 ± 5 µM | IC50 (Jurkat; [4]): 18 ± 3 µM | IC50 (Jurkat; [5]): 18 ± 3 µM | IC50 (MCF-7): 22 ± 4 µM | IC50 (MDA-MB-453): 28 ± 5 µM | IC50 (MM-BI): 26 ± 4 µM | IC50 (Meso-2): 29 ± 5 µM | IC50 (Met5A): 69 ± 8 µM | IC50 (H9c2): > 100 µM | IC50 (HL-1): > 100 µM | sensitivity of MS cells to drug induced cell death [1]: resistant

— patent US8598145B2, “Mitochondrially delivered anti-cancer compounds” (priority 2008, dated 2013)
